Read-outs that look alike come from different tables or passages of the source.
What was measured:
[1] = tested on: H1975 lung cancer cell line; test: Cancer cell growth inhibition, H1975 (celltiter); settings: Homo sapiens, NCI-H1975, 48 h, read-out: IC50 (nM) H1975
Experimental: The medium was removed from each well of the 96-well plate.
In case of H1975, the cells were diluted with a culture medium to a concentration of 50,000 cells/ml. 100 μl of the diluted cell solution was added to each well of a 96-well plate, and, after 1 day, was washed with a mixture of RPMI, 0.1% FBS and 1% penicillin-streptomycin (PS), followed by replacement of the medium. The plate was allowed to be kept overnight and be treated to various concentrations under the same medium condition for 48 hrs. Similarly to an MTT assay, 15 μl of a celltiter one shot solution (Promega) was added to each well, which was incubated for 2 to 3 hrs, and, then, the absorbance at 490 nm was determined.

[2] = tested on: SW-620 colon/rectal cancer cell line; test: Cancer cell growth inhibition, SW-620 (SRB); settings: Homo sapiens, SW-620, 72 h, read-out: IC50 (nM) SW-620
[3] = target: EGFR (EGFR type 1 kinase, Upstate) (Homo sapiens, UniProt P00533); test: Inhibition of EGFR enzyme (fluorescence polarization kinase assay)
Sequence of EGFR (EGFR type 1 kinase, Upstate) (P00533 25-1210): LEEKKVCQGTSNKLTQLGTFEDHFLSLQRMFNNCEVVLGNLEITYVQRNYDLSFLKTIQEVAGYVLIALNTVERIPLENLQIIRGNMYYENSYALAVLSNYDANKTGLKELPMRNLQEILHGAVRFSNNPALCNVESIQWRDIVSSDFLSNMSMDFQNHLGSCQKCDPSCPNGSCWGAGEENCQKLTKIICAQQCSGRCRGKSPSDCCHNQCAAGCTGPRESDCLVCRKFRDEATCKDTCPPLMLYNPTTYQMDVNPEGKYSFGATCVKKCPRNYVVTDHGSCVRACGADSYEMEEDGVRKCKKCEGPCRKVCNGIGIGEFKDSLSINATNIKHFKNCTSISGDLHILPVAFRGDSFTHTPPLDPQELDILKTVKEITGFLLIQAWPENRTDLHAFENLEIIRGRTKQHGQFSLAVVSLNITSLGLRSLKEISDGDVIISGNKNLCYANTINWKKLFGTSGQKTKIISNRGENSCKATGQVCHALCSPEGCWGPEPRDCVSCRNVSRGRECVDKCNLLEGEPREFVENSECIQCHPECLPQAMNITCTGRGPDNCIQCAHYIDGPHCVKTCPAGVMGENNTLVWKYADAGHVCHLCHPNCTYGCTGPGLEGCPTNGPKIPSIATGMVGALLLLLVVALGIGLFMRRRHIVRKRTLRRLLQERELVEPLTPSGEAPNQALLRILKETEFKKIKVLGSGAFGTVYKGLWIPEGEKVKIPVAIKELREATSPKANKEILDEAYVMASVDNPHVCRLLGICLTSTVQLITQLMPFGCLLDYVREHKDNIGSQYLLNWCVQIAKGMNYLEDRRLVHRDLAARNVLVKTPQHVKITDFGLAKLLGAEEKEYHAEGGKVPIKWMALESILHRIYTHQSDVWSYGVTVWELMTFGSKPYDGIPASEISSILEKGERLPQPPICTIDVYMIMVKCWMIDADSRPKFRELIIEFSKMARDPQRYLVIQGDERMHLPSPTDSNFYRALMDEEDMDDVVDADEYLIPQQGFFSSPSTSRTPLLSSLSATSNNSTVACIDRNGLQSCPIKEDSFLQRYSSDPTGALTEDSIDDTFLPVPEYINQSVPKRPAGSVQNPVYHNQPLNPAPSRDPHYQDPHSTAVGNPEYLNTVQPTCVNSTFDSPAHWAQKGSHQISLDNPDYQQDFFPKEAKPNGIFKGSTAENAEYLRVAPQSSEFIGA
Experimental: 10 μl of an EGFR (EGFR type 1 kinase, Upstate, 10 ng/μl) was added to each well of a 96-well plate. […] The calculation and analysis of IC50 were carried out by using Microsoft Excel.

[4] = target: EGFR T790M kinase (Homo sapiens, UniProt P00533, T790M); test: Inhibition of EGFR mutant enzyme (T790M)
Sequence of EGFR T790M kinase (P00533 25-1210 T790M): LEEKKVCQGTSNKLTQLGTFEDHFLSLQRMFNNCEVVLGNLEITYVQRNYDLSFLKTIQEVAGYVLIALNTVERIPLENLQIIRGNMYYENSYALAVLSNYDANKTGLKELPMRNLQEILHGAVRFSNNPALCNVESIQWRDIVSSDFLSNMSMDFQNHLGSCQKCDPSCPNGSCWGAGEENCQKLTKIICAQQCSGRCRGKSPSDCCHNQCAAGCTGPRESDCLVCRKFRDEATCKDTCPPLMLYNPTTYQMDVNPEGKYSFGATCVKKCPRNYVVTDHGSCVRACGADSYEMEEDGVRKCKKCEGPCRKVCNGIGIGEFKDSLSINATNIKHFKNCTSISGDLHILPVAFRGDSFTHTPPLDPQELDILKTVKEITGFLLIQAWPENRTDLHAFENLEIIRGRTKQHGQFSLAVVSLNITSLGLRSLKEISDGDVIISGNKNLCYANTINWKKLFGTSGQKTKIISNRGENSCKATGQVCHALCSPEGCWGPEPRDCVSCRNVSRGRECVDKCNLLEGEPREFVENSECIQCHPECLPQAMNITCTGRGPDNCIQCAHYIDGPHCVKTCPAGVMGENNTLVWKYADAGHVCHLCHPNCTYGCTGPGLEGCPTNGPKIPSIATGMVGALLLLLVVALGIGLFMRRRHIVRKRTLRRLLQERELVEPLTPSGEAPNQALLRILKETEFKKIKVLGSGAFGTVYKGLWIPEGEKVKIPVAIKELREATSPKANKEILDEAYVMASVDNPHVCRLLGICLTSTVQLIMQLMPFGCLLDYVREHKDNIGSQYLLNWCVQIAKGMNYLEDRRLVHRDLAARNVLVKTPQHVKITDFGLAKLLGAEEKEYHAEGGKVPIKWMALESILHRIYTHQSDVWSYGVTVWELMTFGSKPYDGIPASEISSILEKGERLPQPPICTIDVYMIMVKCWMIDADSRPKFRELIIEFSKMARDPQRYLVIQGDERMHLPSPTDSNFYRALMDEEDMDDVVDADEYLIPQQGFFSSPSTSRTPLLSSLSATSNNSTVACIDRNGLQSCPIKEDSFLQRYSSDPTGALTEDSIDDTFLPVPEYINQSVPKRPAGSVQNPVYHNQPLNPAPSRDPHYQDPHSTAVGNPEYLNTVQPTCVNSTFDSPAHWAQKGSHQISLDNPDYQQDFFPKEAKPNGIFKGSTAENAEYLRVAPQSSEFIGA

[5] = tested on: A431 skin cancer cell line; test: Cancer cell growth inhibition, A431 (SRB); settings: Homo sapiens, A-431, 72 h, read-out: ID50 (nM) A431
[6] = tested on: SK-Br3 breast cancer cell line; test: Cancer cell growth inhibition, SK-Br3 (SRB); settings: Homo sapiens, SK-BR-3, 72 h, read-out: ID50 (nM) SK-Br3
[7] = target: T1, EGFR (Homo sapiens, UniProt P00533); test: Prolongation study in A431 cells (EGFR phosphorylation inhibition); format: cell-based; settings: A-431, 1 μM for 4 hrs, then washed, EGF 100 ng/ml
T1 construct: A skin cancer cell line, A431 (ATCC: CRL-1555), was used; endogenous in cells; host or cells: A431 (ATCC: CRL-1555)
T1 sequence (P00533 25-1210): as the sequence (P00533 25-1210) above
Experimental: A skin cancer cell line, A431 (ATCC: CRL-1555), was used to test the degrees of the inventive compounds in inhibiting EGFR's phosphorylation and the prolongation of ability to inhibit it thereof.
The cell line was incubated in a culture flask at 37° C. under 95% air and 5% CO2 using a culture medium containing DMEM, 10% FBS and 1% PS. When more than 90% of the total volume of the culture flask became filled with cells, the cultured cell solution was subject to secondary incubation and was poured to each well of a 6-well plate to the extent of 500,000 cells/well. After 24 hrs, the cells were separated from the solution, washed with PBS, and incubated in a culture medium containing DMEM, 0.1% FBS and 1% PS for 16 hrs. The compounds obtained in Examples 1, 17, 19 and 36, and Tarceva as EGFR phosphorylation inhibitors were each added to the cell-containing well to a concentration of 1 μM. After 4 hrs, the cells were separated from the solution, washed 4 times with PBS after every 0, 2, 4 and 8 hrs, and incubated in a culture medium containing DMEM, 0.1% FBS and 1% PS. […] Just before the completion of the reaction, the cultured cell solution was treated with a 100 ng/ml concentration of EGF (Sigma, Cat No. E9644) for 5 mins to induce the activation of EGFR. After the completion of the reaction, the well plate holding the cultured cells was stored at −70° C. In control groups, the replacement of the medium was performed instead of the addition of the EGFR phosphorylation inhibitor, wherein the induction of EGFR activation using EGF was made only in a positive control group and not made in a negative control group.
For Western blot and enzyme immune measuring (ELISA) methods, the well plate stored at −70° C. was allowed to melt to room temperature, and then protein was extracted from the cells in the well plate using a protein extract buffer. The extraction of the protein was performed as follows: 250 μl of the protein extract buffer (Phosphosafe extraction reagent, Calbiochem, Cat No. 71296-3) comprising protease inhibitor cocktail was added to each cell-containing well, which was stirred at room temperature for 5 mins. The cells were collected using a cell scraper and put in an 1.5 ml tube, which was centrifuged at a speed of 16,000×g for 5 mins. The upper layer thus obtained was separated, of which the protein content was determined by a protein assay kit (Bio-rad, Cat No. 500-0116). The protein extracted was diluted with PBS to a concentration of 0.8 mg/ml.
A human EGFR (py1173) immunoassay kit (Biosource, Cat No. KHR9071) was used in the enzyme immune measuring method. 100 μl of the sample which was diluted by 4 folds with a standard dilution buffer in a kit was added to a strip well, which was incubated at a 4° C. refrigerator overnight. The cultured cells was separated therefrom and washed 4 times with 200 μl of a washing buffer. 100 μl of the resulting primary antibody (anti-human EGFR [pY1173]) was put to each strip well, incubated at 37° C. for 1 hr, and washed 4 times with 200 μl of a washing buffer. The resulting secondary antibody (anti-rabbit IgG-HRP) was diluted by 100 folds with an HRP dilution buffer in a kit. 100 μl of the dilute was put to each strip well, incubated at 37° C. for 30 mins, and washed 4 times with 200 μl of the washing buffer. 100 μl of an HRP substrate in a kit was put to each strip well and incubated in a darkroom for 10 to 30 mins. 100 μl of a reaction stop solution was added thereto to terminate the reaction, and then, the absorbance at 450 nm was observed.
Electrophoresis and Western blot methods were conducted based on the conventional methods in the following: An LDS buffer was added to each sample, which was allowed to boil at 70° C. for 10 mins. 10 μl of the resulting solution was loaded to a 12-well gel (Nupage 4˜12% Bis-tris gel, Invitrogen), followed by 120 volt-electrophoresis in a buffer (MOPS electrophoresis buffer, Invitrogen, Cat No. NP0006-1) for 2 hrs. […]

[8] = read-out: IC50 (nM) EGFR, EGFR type 1 kinase, ATP 50 μM
[9] = read-out: IC50 (nM) T790M, EGFR T790M kinase
[10] = 0 hr after washing, read-out: EGFR phosphorylation inhibition in A431 cell line (%) 0 hr Avg.
[11] = 8 hrs after washing, read-out: EGFR phosphorylation inhibition in A431 cell line (%) 8 hrs Avg.
[12] = 24 hrs after washing, read-out: EGFR phosphorylation inhibition in A431 cell line (%) 24 hrs Avg.
[13] = 48 hrs after washing, read-out: EGFR phosphorylation inhibition in A431 cell line (%) 48 hrs Avg.

| SMILES | IC50 [1] | IC50 [2] | IC50 [3, 8] | IC50 [4, 9] | IC50 [5] | IC50 [6] | IC50 [3] | IC50 [4] | inhibition at 1 µM [7, 10] | inhibition at 1 µM [7, 11] | inhibition at 1 µM [7, 12] | inhibition at 1 µM [7, 13] | inhibition at 1 µM ([7]; 72 hrs after washing, read-out: EGFR phosphorylation inhibition in A431 cell line (%) 72 hrs Avg.) |
| --- | --- | --- | --- | --- | --- | --- | --- | --- | --- | --- | --- | --- | --- |
| C=CC(=O)N1CC(Oc2cc3c(Nc4cccc(Cl)c4F)ncnc3cc2OC)C1 [Example 23, 1-(3-(4-(3-chloro-2-fluorophenylamino)-7-methoxyquinazolin-6-yloxy)azetidin-1-yl)pro-2-pen-1-one] | 9 nM | > 5000 nM | 6 nM | 4 nM | 1.6 nM | 0.5 nM |  |  |  |  |  |  |  |
| C=CC(=O)N1CC[C@H](Oc2cc3c(N[C@H](C)c4ccccc4)ncnc3cc2OC)C1 [Example 11] | 167 nM |  | 12 nM | 27 nM | 8 nM | 13 nM |  |  |  |  |  |  |  |
| C=CC(=O)N1CC[C@H](Oc2cc3c(Nc4ccc(F)c(Cl)c4F)ncnc3cc2OC)C[C@H]1C(N)=O [Example 120, (2S,4S)-1-acryloyl-4-(4-(3-chloro-2,4-difluorophenylamino)-7-methoxyquinazolin-6-yloxy)piperidin-2-carboxamide] | 5.2 nM | > 5000 nM | 1.4 nM | 0.7 nM | 3 nM | 1.3 nM |  |  |  |  |  |  |  |
| C=CC(=O)N1CCC(Oc2ccc3ncnc(Nc4ccc(F)c(Cl)c4F)c3c2)CC1 [Example 71, 1-(4-(4-(3-chloro-2,4-difluorophenylamino)quinazolin-6-yloxy)piperidin-1-yl)pro-2-pen-1-one] | 70 nM |  |  |  | 8 nM | 5 nM | 2.7 nM | 24 nM |  |  |  |  |  |
| C=CC(=O)N1CCC(Oc2cc3c(Nc4ccc(Cl)c(Cl)c4F)ncnc3cc2OC)CC1 [Example 36, 1-(4-(4-(3,4-dichloro-2-fluorophenylamino)-7-methoxyquinazolin-6-yloxy)piperidin-1-yl)pro-2-pen-1-one] |  | > 5000 nM |  |  |  | 0.3 nM |  |  | 90% | 89% | 81% | 41% | 44% |
| C=CC(=O)N1CC[C@H](Oc2ccc3ncnc(Nc4ccc(F)c(Cl)c4F)c3c2)C1 [Example 15, 1-((3S)-3-(4-(3-chloro-2,4-difluorophenylamino)quinazolin-6-yloxy)pyrrolidin-1-yl)pro-2-pen-1-one] | 413 nM |  | 9 nM | 54 nM | 5 nM | 25 nM |  |  |  |  |  |  |  |
| C=CC(=O)N1CC[C@H](Oc2cc3c(Nc4ccc(F)c(Cl)c4F)ncnc3cc2OC)C1 [Example 1, 1-((3S)-3-(4-(3-chloro-2,4-difluorophenylamino)-7-methoxyquinazolin-6-yloxy)pyrrolidin-1-yl)prop-2-en-1-one] | 80 nM | > 5000 nM |  |  | 4 nM | 8 nM |  |  | 71% | 71% | 73% | 42% |  |
| C=CC(=O)N1CC[C@@H](Oc2cc3c(Nc4ccc(F)c(Cl)c4F)ncnc3cc2OC)C[C@@H]1C(N)=O [Example 135, (2R,4R)-1-acryloyl-4-(4-(3-chloro-2,4-difluorophenylamino)-7-methoxyquinazolin-6-yloxy)piperidin-2-carboxamide] | 5.2 nM | > 5000 nM | 4.1 nM | 0.7 nM | 0.8 nM | 0.2 nM |  |  |  |  |  |  |  |
| C=CC(=O)N1CC[C@H](Oc2ccc3ncnc(Nc4ccc(OCc5cccc(F)c5)c(Cl)c4)c3c2)C1 [Example 16, 1-((3S)-3-(4-(3-chloro-4-(3-fluorobenzyloxy)phenylamino)quinazolin-6-yloxy)pyrrolidin-1-yl)pro-2-pen-1-one] |  | > 5000 nM | 8 nM | 47 nM | 15 nM | 7 nM |  |  |  |  |  |  |  |
| C=CC(=O)N1CC(Oc2cc3c(N[C@H](C)c4ccccc4)ncnc3cc2OC)C1 [Example 22, (R)-1-(3-(7-methoxy-4-(1-phenylethylamino)quinazolin-6-yloxy)azetidin-1-yl)pro-2-pen-1-one] | 156 nM |  | 6 nM | 15 nM | 7 nM | 1 nM |  |  |  |  |  |  |  |
| C=C(CN1CCOCC1)C(=O)N1CC(Oc2cc3c(Nc4ccc(F)c(Cl)c4F)ncnc3cc2OC)C1 [Example 105, 1-(3-(4-(3-chloro-2,4-difluorophenylamino)-7-methoxyquinazolin-6-yloxy)azetidin-1-yl)-2-(morpholinomethyl)prop-2-en-1-one] | 8 nM | > 5000 nM |  | 4 nM | 1.5 nM | 0.5 nM |  |  |  |  |  |  |  |
| C=CC(=O)N1CC[C@H](Oc2cc3c(Nc4ccc(OCc5ccccn5)c(Cl)c4)ncnc3cc2OC)C1 [Example 10, 1-((3S)-3-(4-(3-chloro-4-(pyridin-2-ylmethoxy)phenylamino)-7-methoxyquinazolin-6-yloxy)pyrrolidin-1-yl)pro-2-pen-1-one] |  | > 5000 nM | 5 nM | 10 nM | 14 nM | 7 nM |  |  |  |  |  |  |  |
| C=CC(=O)N1CC[C@H](Oc2cc3c(Nc4ccc(F)c(Cl)c4F)ncnc3cc2OC)C[C@H]1C(=O)NCCSC [Example 128, (2S,4S)-1-acryloyl-4-(4-(3-chloro-2,4-difluorophenylamino)-7-methoxyquinazolin-6-yloxy)-N-(2-(methylthio)ethyl)piperidin-2-carboxamide] | 5 nM | > 5000 nM |  | 1.4 nM | 2.4 nM | 5 nM |  |  |  |  |  |  |  |
| C=C(CN(C)C)C(=O)N1CC(Oc2cc3c(Nc4ccc(F)c(Cl)c4F)ncnc3cc2OC)C1 [Example 104, 1-(3-(4-(3-chloro-2,4-difluorophenylamino)-7-methoxyquinazolin-6-yloxy)azetidin-1-yl)-2-((dimethylamino)methyl)prop-2-en-1-one] | 11 nM | > 5000 nM |  | 2 nM | 41 nM | 1.5 nM |  |  |  |  |  |  |  |

Source: US8188102B2, “Amide derivative for inhibiting the growth of cancer cells” (Hanmi Holdings Co., Ltd., priority 2007, dated 2012)
